From patent US20260053834A1, “COVALENT MODIFIERS OF AKT1 AND USES THEREOF” (Terremoto Biosciences, Inc., priority 2023, published 2026)

Assays:
[1] = biological target: T1, AKT1 WT (Homo sapiens, UniProt P31749); assay: Live cell target engagement by NanoBRET competitive probe displacement, AKT1 WT; type: binding; details: transfected HEK293 cells, 2 h at 37° C., read-out: AKT1 WT IC50: GeoMean IC50
T1 construct: expressed in transfected cells; host or cells: HEK293

[2] = test system: LAPC4 prostate cancer cells, which express the AKT1 E17K allele; assay: Antiproliferative effects in LAPC4 cells (CellTiter Glo, 72 h); type: cell-based; details: Homo sapiens, LAPC4, 72 h, read-out: LAPC4 proliferation IC50: GeoMean IC50
How it was run: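 Cells grown in IMDM with 12% FBS, seeded at 1,000 cells/well and treated with compound dilutions in DMSO for 72 h. Intracellular ATP read by luminescence. IC50 from a log(inhibitor) vs. response Hill fit.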

[3] = biological target: T2, AKT1 E17K (Homo sapiens, UniProt P31749, E17K); assay: Live cell target engagement by NanoBRET competitive probe displacement, AKT1 E17K; type: binding; details: transfected HEK293 cells, 2 h at 37° C., read-out: AKT1 E17K IC50: GeoMean IC50
T2 construct: expressed in transfected cells; host or cells: HEK293

[4] = biological target: T3, AKT2 (Homo sapiens, UniProt P31751); assay: Live cell target engagement by NanoBRET competitive probe displacement, AKT2; type: binding; details: transfected HEK293 cells, 2 h at 37° C., read-out: AKT2 IC50: GeoMean IC50
T3 construct: expressed in transfected cells; host or cells: HEK293
T3 sequence (P31751 whole entry): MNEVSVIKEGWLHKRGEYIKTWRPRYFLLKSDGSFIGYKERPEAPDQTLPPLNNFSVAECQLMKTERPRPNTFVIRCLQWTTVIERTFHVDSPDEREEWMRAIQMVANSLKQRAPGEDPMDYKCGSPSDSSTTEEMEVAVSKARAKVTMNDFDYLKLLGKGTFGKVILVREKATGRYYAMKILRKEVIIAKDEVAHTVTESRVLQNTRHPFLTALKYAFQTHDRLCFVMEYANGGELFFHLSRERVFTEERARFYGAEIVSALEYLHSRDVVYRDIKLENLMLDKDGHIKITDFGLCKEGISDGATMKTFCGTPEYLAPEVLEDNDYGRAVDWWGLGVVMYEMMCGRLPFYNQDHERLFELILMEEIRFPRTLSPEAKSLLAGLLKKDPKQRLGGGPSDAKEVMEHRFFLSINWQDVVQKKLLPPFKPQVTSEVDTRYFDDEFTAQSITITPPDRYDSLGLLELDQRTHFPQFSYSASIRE

T2 sequence (P31749 whole entry E17K): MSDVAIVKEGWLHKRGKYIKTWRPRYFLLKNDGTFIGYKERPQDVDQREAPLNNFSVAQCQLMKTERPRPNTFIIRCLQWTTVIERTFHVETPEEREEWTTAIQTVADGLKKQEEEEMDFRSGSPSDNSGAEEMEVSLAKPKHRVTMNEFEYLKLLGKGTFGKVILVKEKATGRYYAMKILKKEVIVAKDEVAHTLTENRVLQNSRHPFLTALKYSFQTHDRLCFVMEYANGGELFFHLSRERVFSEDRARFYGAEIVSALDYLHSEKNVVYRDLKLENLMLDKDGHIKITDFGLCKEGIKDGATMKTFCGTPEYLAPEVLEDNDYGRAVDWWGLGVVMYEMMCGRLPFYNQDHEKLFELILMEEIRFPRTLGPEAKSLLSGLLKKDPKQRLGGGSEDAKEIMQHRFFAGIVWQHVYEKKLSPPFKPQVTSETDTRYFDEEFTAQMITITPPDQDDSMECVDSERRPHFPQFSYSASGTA
T1 sequence (P31749 whole entry): as the sequence (P31749 whole entry E17K) above, with K17E counted along it

SMILES | IC50 [1] [nM] | IC50 [2] [nM] | IC50 [3] [nM] | IC50 [4] [nM]
Nc1ncccc1-c1nc2ccc(-n3cccn3)nc2n1-c1ccc2c(c1)CC[C@@H]2NC(=O)c1cc(C=O)c(O)c(F)c1F [Example 82, (S)—N-(5-(2-(2-aminopyridin-3-yl)-5-(1H-pyrazol-1-yl)-3H-imidazo[4,5-b]pyridin-3-yl)-2,3-dihydro-1H-inden-1-yl)-2,3-difluoro-5-formyl-4-hydroxybenzamide] | 10 to 100 | 10 to 100 | 10 to 100 | 10 to 100
Cc1cc(-n2nccn2)nc2c1nc(-c1cccnc1N)n2-c1ccc2c(c1)CC[C@@H]2NC(=O)c1ccc(O)c(C=O)c1 [Example 234, N-[(1S)-5-[2-(2-aminopyridin-3-yl)-7-methyl-5-(1,2,3-triazol-2-yl)imidazo[4,5-b]pyridin-3-yl]-2,3-dihydro-1H-inden-1-yl]-3-formyl-4-hydroxybenzamide] | 10 to 100 | 10 to 100 | 10 to 100 | 100 to 2000
Nc1ncccc1-c1nc2ccc(-n3cc(Cl)cn3)nc2n1-c1ccc2c(c1)CC[C@@H]2NC(=O)c1ccc(O)c(C=O)c1 [Example 78, N-[(1S)-5-[2-(2-aminopyridin-3-yl)-5-(4-chloropyrazol-1-yl)imidazo[4,5-b]pyridin-3-yl]-2,3-dihydro-1H-inden-1-yl]-3-formyl-4-hydroxybenzamide] | 100 to 2000 | 100 to 2000 | 10 to 100 | 100 to 2000
CN(C)c1cc(C(=O)N[C@H]2CCc3cc(-n4c(-c5cccnc5N)nc5ccc(-n6cccn6)nc54)ccc32)cc(C=O)c1O [Example 228, N-[(1S)-5-[2-(2-aminopyridin-3-yl)-5-(pyrazol-1-yl)imidazo[4,5-b]pyridin-3-yl]-2,3-dihydro-1H-inden-1-yl]-3-(dimethylamino)-5-formyl-4-hydroxybenzamide] | 100 to 2000 | 100 to 2000 | 10 to 100 | ≥ 2000
Nc1ncccc1-c1nc2ccc(-n3cccn3)nc2n1-c1ccc2c(c1)CC[C@@H]2NCc1cc(C=O)c(O)cc1F [Example 239, 5-({[(1S)-5-[2-(2-aminopyridin-3-yl)-5-(pyrazol-1-yl)imidazo[4,5-b]pyridin-3-yl]-2,3-dihydro-1H-inden-1-yl]amino}methyl)-4-fluoro-2-hydroxybenzaldehyde] | 10 to 100 | ≥ 2000 | 10 to 100 | 100 to 2000
Cc1nnc(-c2ccc3nc(-c4cccnc4N)n(-c4ccc5c(c4)CC[C@@H]5NC(=O)c4ccc(O)c(C=O)c4)c3n2)s1 [Example 203, N-[(1S)-5-[2-(2-aminopyridin-3-yl)-5-(5-methyl-1,3,4-thiadiazol-2-yl)imidazo[4,5-b]pyridin-3-yl]-2,3-dihydro-1H-inden-1-yl]-3-formyl-4-hydroxybenzamide] | 10 to 100 | 100 to 2000 | 10 to 100 | 100 to 2000
Nc1ncccc1-c1nc2ccc(-c3ccn(C4CC4)n3)nc2n1-c1ccc2c(c1)CC[C@@H]2NC(=O)c1cc(C=O)c(O)cc1F [Example 240, N-[(1S)-5-[2-(2-aminopyridin-3-yl)-5-(1-cyclopropylpyrazol-3-yl)imidazo[4,5-b]pyridin-3-yl]-2,3-dihydro-1H-inden-1-yl]-2-fluoro-5-formyl-4-hydroxybenzamide] | 10 to 100 | 10 to 100 | 10 to 100 | 100 to 2000
Nc1ncccc1-c1nc2ccc(-n3ccc(Cl)n3)nc2n1-c1ccc2c(c1)CC[C@@H]2NC(=O)c1ccc(O)c(C=O)c1 [Example 96, (S)—N-(5-(2-(2-aminopyridin-3-yl)-5-(3-chloro-1H-pyrazol-1-yl)-3H-imidazo[4,5-b]pyridin-3-yl)-2,3-dihydro-1H-inden-1-yl)-3-formyl-4-hydroxybenzamide] | 100 to 2000 | 100 to 2000 | 10 to 100 | 100 to 2000
